Earlier results in US20050187278A1, “Treatment or prevention of vascular disorders with Cox-2 inhibitors in combination with cyclic AMP-specific phosphodiesterase inhibitors” (Pharmacia Corporation, priority 2003, published 2005).

Key:
PDE4 [1] = test system: PDE4
PDE3 = conditions: first of two values given 'respectively' for PDE3 and 4
PDE4 [2] = conditions: second of two values given 'respectively' for PDE3 and 4

COc1ccc([C@@H]2CNC(=O)C2)cc1OC1CCCC1 [Compound C6, (4R)-4-[3-(Cyclopentyloxy)-4-methoxyphenyl]pyrrolidin-2-one]
fold more potent than the S-(+) enantiomer (PDE4 [1]; PDE4 inhibitor rolipram, R-(-) versus S-(+) enantiomer): rolipram; 2-10-fold

COc1ccc([C@H]2CNC(=O)C2)cc1OC1CCCC1 [Compound C7, (4S)-4-[3-(Cyclopentyloxy)-4-methoxyphenyl]pyrrolidin-2-one]
activity relative to the other enantiomer of the PDE4 inhibitor rolipram (PDE4 [1]; in words): Less active

COc1cc(-c2ccc(=O)[nH]n2)ccc1OC(F)F [Compound C8, 6-[4-(Difluoromethoxy)-3-methoxyphenyl]-3(2H)-pyridazinone]
IC50 (PDE3): 500 nM | IC50 (PDE4 [2]): 800 nM
